Article PMC4022547 (Molecular Brain, 2014)

Experiments:
Assay in all cases: Oocyte two-electrode voltage clamp
Assay type in all cases: cell-based
hα6 + hβ4 + hβ3 nAChR = hα6 + hβ4 + hβ3 nAChR (Homo sapiens, UniProt P30926+Q15825)
Description: (§1) We planned to introduce identical amounts of cRNA, presumably producing equal amounts of each subunit protein, into oocytes largely due to lack of information about the levels of mRNA for each subunits that compose α6*-nAChRs in neurons or other cells. Concentrations of cRNAs for each nAChR α and β subunits (WT, mutant or variant) were adjusted to 500 ng μL^−1. We provisionally assumed that hα6 or its variants in association with hβ2 or hβ4 subunits would form complexes having 2:3 and/or 3:2 ratios of the indicated subunits and that oocytes also injected with WT or mutant form of β3 subunits (i.e., β3^V9’S) would express nAChR with 2:2:1 ratios of α:β:(β3 or β3^V9’S) subunits. For expression of binary nAChRs (i.e., two subunit containing nAChRs; α + β but not β3) cRNA mixtures were prepared by mixing 1 μL of cRNA for each subunit and an additional μL of RNAse free water (i.e., total volume 3 μL). Similarly for expression of ternary nAChRs [i.e., three subunit containing nAChRs; (α + β) + (β3 or β3^V9’S)] cRNA mixtures were prepared by mixing 1 μL of cRNA for each subunit. Several preparations of each mixture were prepared and stored at −80°C until further use. Injection of 138 nL of cRNA, out of 3 μL cRNA mixtures, into each oocyte would deliver ~23 ng of cRNA for each subunit whether binary or ternary nAChRs are expressed.
(§2) Two to 5 days after injection, oocytes were placed in a small-volume chamber and continuously perfused with OR2. The chamber was grounded through an agarose bridge. The oocytes were voltage-clamped at −70 mV (unless otherwise noted) to measure agonist or antagonist induced currents using Axoclamp 900A and pClamp 10.2 software (Molecular Devices, Sunnyvale, CA). The current signal was low-pass filtered at 10 Hz with the built-in low-pass Bessel filter in the Axoclamp 900A and digitized at 20 Hz with Axon Digidata1440A and pClamp10. […] Drugs (agonists and antagonists) were prepared daily in OR2. Drug was applied using a Valvelink 8.2 perfusion system (Automate scientific, Berkeley, CA). […] Then for the purpose of comparison electrophysiological recordings were performed in a given day in a given batch of oocytes following the same order of injections. […] All hβ4*-nAChR recordings were done in similar conditions to facilitate comparisons between hα6hβ4- and hα6hβ4hβ3-nAChRs. All electrophysiological measurements were conducted or checked in at least two batches of oocytes.
(§3) Raw data was collected and processed in part using pClamp 10.2 (Molecular Devices, Sunnyvale, CA), Origin 7.5 (OriginLab Corporation, Northampton, MA) and a spreadsheet (Excel; Microsoft, Bellevue, WA). Peak current amplitudes (Imax) are reported as mean ± SEM (for results from at least three oocytes, i.e., n = 3).

hα6 + hβ4 nAChR = hα6 + hβ4 nAChR (Homo sapiens, UniProt P30926+Q15825)
hα6 + hβ4 nAChR, sequence (Q15825 26-494): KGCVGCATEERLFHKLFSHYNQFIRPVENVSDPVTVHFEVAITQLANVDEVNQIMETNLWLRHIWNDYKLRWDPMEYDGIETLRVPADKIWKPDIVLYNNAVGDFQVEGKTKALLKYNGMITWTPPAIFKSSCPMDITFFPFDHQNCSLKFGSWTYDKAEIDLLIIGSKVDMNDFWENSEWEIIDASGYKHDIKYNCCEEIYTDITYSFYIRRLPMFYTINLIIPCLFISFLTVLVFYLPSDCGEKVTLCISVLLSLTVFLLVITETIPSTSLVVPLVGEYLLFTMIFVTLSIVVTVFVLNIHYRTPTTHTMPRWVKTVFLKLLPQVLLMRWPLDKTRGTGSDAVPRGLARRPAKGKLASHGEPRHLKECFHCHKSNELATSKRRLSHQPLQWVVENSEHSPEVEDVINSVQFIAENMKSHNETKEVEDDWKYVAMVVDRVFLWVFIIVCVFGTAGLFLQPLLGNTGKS
hα6 + hβ4 nAChR, sequence (P30926 22-498): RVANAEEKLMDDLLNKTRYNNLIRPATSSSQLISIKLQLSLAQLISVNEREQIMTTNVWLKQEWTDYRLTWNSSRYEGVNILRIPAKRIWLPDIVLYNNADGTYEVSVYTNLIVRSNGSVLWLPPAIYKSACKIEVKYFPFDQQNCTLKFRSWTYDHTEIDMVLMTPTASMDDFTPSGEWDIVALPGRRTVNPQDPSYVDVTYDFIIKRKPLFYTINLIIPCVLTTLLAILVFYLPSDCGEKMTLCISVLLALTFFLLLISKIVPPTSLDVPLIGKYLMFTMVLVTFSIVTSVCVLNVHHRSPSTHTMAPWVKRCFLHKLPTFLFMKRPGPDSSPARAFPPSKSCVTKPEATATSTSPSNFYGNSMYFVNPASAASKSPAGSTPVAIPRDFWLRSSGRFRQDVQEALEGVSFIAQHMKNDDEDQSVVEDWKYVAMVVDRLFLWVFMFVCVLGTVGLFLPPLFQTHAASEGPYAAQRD
Description: as §1, §2, §3

[1] = target: hα6(A184D) + hβ4 + hβ3 nAChR (Homo sapiens, UniProt P30926+Q15825, A184D)
hα6(A184D) + hβ4 + hβ3 nAChR, sequence (Q15825 26-494 A184D): as the sequence (Q15825 26-494) above, with A159D counted along it
hα6(A184D) + hβ4 + hβ3 nAChR, sequence (P30926 22-498): as the sequence (P30926 22-498) above
hα6(A184D) + hβ4 + hβ3 nAChR, sequence (Q05901 25-458 partner limits assumed): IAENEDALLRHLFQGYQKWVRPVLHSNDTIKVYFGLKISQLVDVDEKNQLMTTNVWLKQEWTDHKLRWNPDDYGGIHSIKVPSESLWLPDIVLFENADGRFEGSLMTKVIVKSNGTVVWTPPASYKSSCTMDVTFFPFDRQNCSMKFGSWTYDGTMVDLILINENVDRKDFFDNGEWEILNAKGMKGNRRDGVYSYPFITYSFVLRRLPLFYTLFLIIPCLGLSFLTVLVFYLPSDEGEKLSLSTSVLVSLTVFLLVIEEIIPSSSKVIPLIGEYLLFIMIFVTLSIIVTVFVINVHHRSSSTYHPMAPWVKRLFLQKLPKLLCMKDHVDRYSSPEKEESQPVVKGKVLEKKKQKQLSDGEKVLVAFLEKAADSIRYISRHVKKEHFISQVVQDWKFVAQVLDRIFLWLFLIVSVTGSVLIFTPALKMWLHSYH
Description: as §1, §2, §3

hα6(A184D) + hβ4 nAChR = hα6(A184D) + hβ4 nAChR (Homo sapiens, UniProt P30926+Q15825, A184D)
hα6(A184D) + hβ4 nAChR, sequence (Q15825 26-494 A184D): as the sequence (Q15825 26-494) above, with A159D counted along it
hα6(A184D) + hβ4 nAChR, sequence (P30926 22-498): as the sequence (P30926 22-498) above
Description: as §1, §2, §3

[2] = target: hα6(D199Y) + hβ4 + hβ3 nAChR (Homo sapiens, UniProt P30926+Q15825, D199Y)
hα6(D199Y) + hβ4 + hβ3 nAChR, sequence (Q15825 26-494 D199Y): as the sequence (Q15825 26-494) above, with D174Y counted along it
hα6(D199Y) + hβ4 + hβ3 nAChR, sequence (P30926 22-498): as the sequence (P30926 22-498) above
hα6(D199Y) + hβ4 + hβ3 nAChR, sequence (Q05901 25-458 partner limits assumed): as the sequence (Q05901 25-458 partner limits assumed) above
Description: as §1, §2, §3

hα6(D199Y) + hβ4 nAChR = hα6(D199Y) + hβ4 nAChR (Homo sapiens, UniProt P30926+Q15825, D199Y)
hα6(D199Y) + hβ4 nAChR, sequence (Q15825 26-494 D199Y): as the sequence (Q15825 26-494) above, with D174Y counted along it
hα6(D199Y) + hβ4 nAChR, sequence (P30926 22-498): as the sequence (P30926 22-498) above
Description: as §1, §2, §3

[3] = target: T1, hα6(R87C) + WT hβ2 + hβ3^V9’S nAChR (Homo sapiens, UniProt P17787+Q15825, R87C)
T1 construct: Full length capped mRNA (i.e., cRNA) was transcribed from linearized plasmids; expressed in transfected cells; host or cells: Xenopus laevis oocytes injected with cRNA
T1 sequence (Q15825 26-494 R87C): as the sequence (Q15825 26-494) above, with R62C counted along it
T1 sequence (P17787 26-502): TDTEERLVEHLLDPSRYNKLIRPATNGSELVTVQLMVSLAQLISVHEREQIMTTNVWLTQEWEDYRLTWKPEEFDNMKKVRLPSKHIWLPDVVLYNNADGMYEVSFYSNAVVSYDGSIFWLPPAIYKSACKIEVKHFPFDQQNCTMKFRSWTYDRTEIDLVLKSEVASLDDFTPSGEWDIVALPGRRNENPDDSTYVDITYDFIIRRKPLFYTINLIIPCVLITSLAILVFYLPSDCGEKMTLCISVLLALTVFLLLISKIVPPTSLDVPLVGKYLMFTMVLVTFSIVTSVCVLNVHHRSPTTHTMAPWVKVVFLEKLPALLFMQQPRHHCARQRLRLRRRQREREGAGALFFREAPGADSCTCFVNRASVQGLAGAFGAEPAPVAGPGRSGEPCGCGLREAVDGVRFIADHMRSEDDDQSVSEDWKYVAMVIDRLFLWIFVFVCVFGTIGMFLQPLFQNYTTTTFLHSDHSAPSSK
T1 sequence (Q05901 25-458 V273S partner limits assumed): as the sequence (Q05901 25-458 partner limits assumed) above, with V249S counted along it
Description: as §1, §2, §3

[4] = target: T2, hα6(R96H) + hβ4 + hβ3 nAChR (Homo sapiens, UniProt P30926+Q15825, R96H)
T2 construct: Full length capped mRNA (i.e., cRNA) was transcribed from linearized plasmids; expressed in transfected cells; host or cells: Xenopus laevis oocytes injected with cRNA
T2 sequence (Q15825 26-494 R96H): as the sequence (Q15825 26-494) above, with R71H counted along it
T2 sequence (P30926 22-498, stated change not applied): as the sequence (P30926 22-498) above
T2 sequence (Q05901 25-458 partner limits assumed): as the sequence (Q05901 25-458 partner limits assumed) above
Description: as §1, §2, §3

hα6(R96H) + hβ4 nAChR = target: T3, hα6(R96H) + hβ4 nAChR (Homo sapiens, UniProt P30926+Q15825, R96H)
T3 construct: Full length capped mRNA (i.e., cRNA) was transcribed from linearized plasmids; expressed in transfected cells; host or cells: Xenopus laevis oocytes injected with cRNA
T3 sequence (Q15825 26-494 R96H): as the sequence (Q15825 26-494) above, with R71H counted along it
T3 sequence (P30926 22-498, stated change not applied): as the sequence (P30926 22-498) above
Description: as §1, §2, §3

[5] = target: hα6(S233C) + hβ4 + hβ3 nAChR (Homo sapiens, UniProt P30926+Q15825, S233C)
hα6(S233C) + hβ4 + hβ3 nAChR, sequence (Q15825 26-494 S233C): as the sequence (Q15825 26-494) above, with S208C counted along it
hα6(S233C) + hβ4 + hβ3 nAChR, sequence (P30926 22-498): as the sequence (P30926 22-498) above
hα6(S233C) + hβ4 + hβ3 nAChR, sequence (Q05901 25-458 partner limits assumed): as the sequence (Q05901 25-458 partner limits assumed) above
Description: as §1, §2, §3

hα6(S233C) + hβ4 nAChR = hα6(S233C) + hβ4 nAChR (Homo sapiens, UniProt P30926+Q15825, S233C)
hα6(S233C) + hβ4 nAChR, sequence (Q15825 26-494 S233C): as the sequence (Q15825 26-494) above, with S208C counted along it
hα6(S233C) + hβ4 nAChR, sequence (P30926 22-498): as the sequence (P30926 22-498) above
Description: as §1, §2, §3

[6] = 100 μM nicotine, oocytes clamped at −70 mV

hα6 + hβ4 + hβ3 nAChR, sequence (Q15825 26-494): as the sequence (Q15825 26-494) above
hα6 + hβ4 + hβ3 nAChR, sequence (P30926 22-498): as the sequence (P30926 22-498) above
hα6 + hβ4 + hβ3 nAChR, sequence (Q05901 25-458 partner limits assumed): as the sequence (Q05901 25-458 partner limits assumed) above

CN1CCC[C@H]1c1cccnc1 [nicotine, L-nicotine]
EC50 (hα6 + hβ4 + hβ3 nAChR): 12 µM | Imax conc. (concentration where maximal peak current achieved) (hα6 + hβ4 + hβ3 nAChR): 100 µM | nH ± SE (Hill coefficient) (hα6 + hβ4 + hβ3 nAChR): 1.5±0.45 | increase of peak current response relative to hα6hβ4-nAChRs (hα6 + hβ4 + hβ3 nAChR; 100 μM nicotine): ~ 12 fold | Mean (±SE) peak current response (hα6 + hβ4 + hβ3 nAChR; [6]): 407 ± 34 nA | Imax conc. (concentration where maximal peak current achieved) (hα6 + hβ4 nAChR): 100 µM | peak current (Imax, mean ± SE) (hα6 + hβ4 nAChR; [6]): 35 ± 2 nA | EC50 [1]: 4.9 µM | Imax conc. (concentration where maximal peak current achieved) [1]: 100 µM | nH ± SE (Hill coefficient) [1]: 1.1±0.11 | Mean (±SE) peak current response [1, 6]: 554 ± 108 nA | EC50 (hα6(A184D) + hβ4 nAChR): 2.7 µM | Imax conc. (concentration where maximal peak current achieved) (hα6(A184D) + hβ4 nAChR): 100 µM | nH ± SE (Hill coefficient) (hα6(A184D) + hβ4 nAChR): 1.1±0.15 | peak current (Imax, mean ± SE) (hα6(A184D) + hβ4 nAChR; [6]): 122 ± 12 nA | EC50 [2]: 11 µM | Imax conc. (concentration where maximal peak current achieved) [2]: 100 µM | nH ± SE (Hill coefficient) [2]: 1.5±0.42 | Mean (±SE) peak current response [2, 6]: 276 ± 47 nA | EC50 (hα6(D199Y) + hβ4 nAChR): 4.4 µM | Imax conc. (concentration where maximal peak current achieved) (hα6(D199Y) + hβ4 nAChR): 100 µM | nH ± SE (Hill coefficient) (hα6(D199Y) + hβ4 nAChR): 1.1±0.26 | peak current (Imax, mean ± SE) (hα6(D199Y) + hβ4 nAChR; [6]): 90 ± 11 nA | current response ([3]; ACh, nicotine or atropine, hβ2 type not specified): not obtained | current response ([3]; nicotine): did not yield current responses | EC50 [4]: 8.2 µM | Imax conc. (concentration where maximal peak current achieved) [4]: 100 µM | nH ± SE (Hill coefficient) [4]: 1.2±0.13 | Mean (±SE) peak current response [4, 6]: 513 ± 42 nA | Imax conc. (concentration where maximal peak current achieved) (hα6(R96H) + hβ4 nAChR): 100 µM | peak current (Imax, mean ± SE) (hα6(R96H) + hβ4 nAChR; [6]): 73 ± 10 nA | EC50 [5]: 6.9 µM | Imax conc. (concentration where maximal peak current achieved) [5]: 100 µM | nH ± SE (Hill coefficient) [5]: 1.4±0.12 | Mean (±SE) peak current response [5, 6]: 536 ± 66 nA | EC50 (hα6(S233C) + hβ4 nAChR): 6.2 µM | Imax conc. (concentration where maximal peak current achieved) (hα6(S233C) + hβ4 nAChR): 100 µM | nH ± SE (Hill coefficient) (hα6(S233C) + hβ4 nAChR): 1.4±0.13 | peak current (Imax, mean ± SE) (hα6(S233C) + hβ4 nAChR; [6]): 73 ± 20 nA
